Source: US20050261264A1, “Rare-earth ternary complex” (priority 2000, published 2005)

Assays:
Type in all cases: physicochemical
[1] = Miscibility with solvents, visual evaluation at 5 wt %; design: key: ⊚: dissolves at room temperature; ◯: dissolves when heated for 5 minutes at 40° C.; Δ: dissolves under heating, but cooling precipitates crystals; X: does not dissolve; conditions: complex added at 5 wt %
Experimental: The miscibility of the rare earth complex with various media was evaluated as follows.
1) Miscibility with Solvents

[2] = Miscibility with a polymer matrix, visual evaluation; design: key to Miscibility, PMMA: ⊚: dissolves up to 30 wt %; ◯: dissolves up to 5 wt %; Δ: disperses up to 5 wt %, but there is turbidity; X: repelled at the polymer surface
Summary of the method: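 Complex added to various polymer media at set concentrations and miscibility judged visually: dissolves up to 30 wt %, dissolves up to 5 wt %, disperses up to 5 wt % with turbidity, or repelled at polymer surface.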

[3] = Number of moles of bound water per mole of complex (TG-DTA); conditions: for Bound water (number of moles of bound water per mole of complex): Table 1, dried samples for the ternary complexes
Summary of the method: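 Bound water per mole of Eu(PMS)3(TPPO)8 complex derived from TG-DTA weight loss at 100° C. Crystals measured as recrystallized from water-methanol and again after vacuum drying 3 h at 140° C, […].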

[4] = Luminescence quantum yield and luminescence intensity in solution; conditions: acetonitrile solution; for Relative luminescence intensity: Eu 0.05 mol/L, relative to Eu(PMS)3 (Comparative Example 7) = 1; for Luminescence quantum yield: europium ion 0.05 mol/L, excitation 465 nm, luminescence 612 nm
Experimental: (§1) The intensity of luminescence and the luminescence quantum yield, the quotient of dividing the number of photons emitted from a sample by the number of photons absorbed into the sample, were measured with an SS-25 from JASCO Corporation.
The luminescence quantum yield of an acetonitrile solution of the Eu(PMS)3(TPPO)8 obtained in Example 1 (europium ion concentration: 0.05 mol/L) was measured (excitation wavelength: 465 nm, maximum luminescence wavelength: 612 nm, luminescence wavelength used in measurement: 612 nm).
The solutions prepared in Examples 12 to 14 and Comparative Examples 7 to 9 and Comparative Example B were measured for luminescence intensity at the respective maximum luminescence wavelengths.
The relative luminescence intensity of the solutions used in Examples 12 to 14 and Comparative Example B: (luminescence intensity in each of Examples 12 to 14)/(luminescence intensity in Comparative Example 7) was calculated, letting 1 be the luminescence intensity in Comparative Example 7 (solution of a rare earth complex in which the ligand Z was not coordinated).
Similarly, the relative luminescence intensity in Comparative Example 9: (luminescence intensity in Comparative Example 9)/(luminescence intensity in Comparative Example 8) was calculated, letting 1 be the luminescence intensity in Comparative Example 8 (solution of a known β-diketone-type of rare earth complex in which the ligand Z was not coordinated). The relative luminescence intensity of the solution used in Comparative Example B was 1.6 times.
The luminescence quantum yield of an acetone-d6 solution of the Nd(PMS)3(TPPO)8 obtained in Example 2 (neodymium ion concentration: 0.05 mol/L) was measured (excitation wavelength: 585 nm, maximum luminescence wavelength: 1064 nm, luminescence wavelength used in measurement: 1064 nm).
The solutions prepared in Examples 15 and 16 and Comparative Examples 10 were measured for luminescence intensity at the respective maximum luminescence wavelengths. The relative luminescence intensity in Examples 15 and 16: (luminescence intensity in each of Examples 15 and 16)/(luminescence intensity in Comparative Example 10) was calculated, letting 1 be the luminescence intensity in Comparative Example 10 (rare earth complex in which the ligand Z was not coordinated).

[5] = Luminescence quantum yield and luminescence intensity in PMMA polymer matrix composition; conditions: PMMA rod; for Relative luminescence intensity: Eu 0.7 wt %, relative to Eu(PMS)3 (Comparative Example 11) = 1
Experimental: as §1
A 1 mL quantity of refined anhydrous methyl methacrylate (MMA), 0.5 mg of AIBN, and 148 mg (0.7 wt %) as the rare earth ion concentration) of the Eu (PMS)3 (TPPO)8 obtained in Example 1 were mixed, the mixture was transferred to a Pyrex tube, and the inside of the tube was deaerated and then sealed. By reacting for 5 hours at 60° C., the polymerization of MMA was carried out. The resulting PMMA containing Eu(PMS)3 (TPPO)8 was taken out of the Pyrex tube, and a rod-shaped polymer matrix composition was obtained.
(§2) The polymer matrix compositions prepared in Examples 17 to 19 and Comparative Example 11 were measured for luminescence intensity at the respective maximum luminescence wavelengths. The relative luminescence intensity in Examples 17 to 19: (luminescence intensity in each of Examples 17 to 19)/(luminescence intensity in Comparative Example 11) was calculated, letting 1 be the luminescence intensity in Comparative Example 11 (rare earth complex in which the ligand Z was not coordinated).
A rod-shaped polymer matrix composition containing […] was obtained in the same manner as in Example 17, except that 148 mg (rare earth ion concentration: 0.7 wt %) of the Nd(PMS)3 (TPPO)8 obtained in Example 2 was used instead of Eu(PMS)3 (TPPO)8.
as §2, with “20 and 21” for “17 to 19”, “12” for “11”, “20 and 21:” for “17 to 19:”, “20 and 21)/(luminescence” for “17 to 19)/(luminescence”, “12)” for “11)”

[6] = Mechanoluminescence of polycarbonate film hit with a metal rod; conditions: polycarbonate film about 6 μm thick, visual
Experimental: The rare earth ternary complex of the present invention can be used as a mechanoluminescence material. The term mechanoluminescence as used here refers to a phenomenon whereby physical force (such as pressure, vibration energy or the like) imparted to the rare earth ternary complex is converted into optical energy, causing the complex to emit light.
A 50 mg quantity of the Eu(PMS)3(Phen)m obtained in Example 8 and 450 mg of polycarbonate were dissolved in 3 mL of methylene chloride and then uniformly stirred to obtain a polymer solution. This polymer solution was then cast onto a glass plate, after which it was dried in vacuo overnight to remove the solvent, forming a polycarbonate film containing Eu(PMS)3(Phen)m, which is about 6 μm thick, on the glass plate.
A polycarbonate film containing Eu(PMS)3, which is about 6 μm thick, was formed on a glass plate in the same manner as in Example 22, except that 42 mg of the Eu(PMS)3 prepared in Producing Example 1 was used instead of Eu(PMS)3 (Phen) m.

| SMILES | Miscibility, Acetone [1] | Miscibility, Chloroform [1] | Miscibility, Toluene [1] | Miscibility, Water [1] | Miscibility, Epoxy resin [2] | Miscibility, Nafion [2] | Miscibility, PMMA [2] | Bound water (number of moles of bound water per mole of complex) [3] | Number of moles of bound water per mole of complex ([3]; after drying in vacuo at 140° C.) | Number of moles of bound water per mole of complex ([3]; before drying (crystals as obtained), weight reduction at 100° C.) | Relative luminescence intensity [4] | Luminescence quantum yield [4] [%] | Relative luminescence intensity [5] | Light emission when film is hit with a metal rod (mechanoluminescence) [6] | Luminescence quantum yield ([5]; rare earth ion 0.7 wt %, excitation 465 nm, luminescence 612 nm) [%] |
| --- | --- | --- | --- | --- | --- | --- | --- | --- | --- | --- | --- | --- | --- | --- | --- |
| O=S(=O)([N-]S(=O)(=O)C(F)(F)F)C(F)(F)F.O=S(=O)([N-]S(=O)(=O)C(F)(F)F)C(F)(F)F.O=S(=O)([N-]S(=O)(=O)C(F)(F)F)C(F)(F)F.[Eu+3].c1cnc2c(c1)ccc1cccnc12.c1cnc2c(c1)ccc1cccnc12.c1cnc2c(c1)ccc1cccnc12.c1cnc2c(c1)ccc1cccnc12 [Eu(PMS)3(Phen)m] | ⊚ | Δ | Δ | X | ◯ (dissolves up to 5 wt %) | ◯ (dissolves up to 5 wt %) | ◯ (dissolves up to 5 wt %) | 0.00 | water had been completely removed | 3.06 | 49.5 | 5.1 | 5566 | emits red light |  |
| O=S(=O)([N-]S(=O)(=O)C(F)(F)F)C(F)(F)F.O=S(=O)([N-]S(=O)(=O)C(F)(F)F)C(F)(F)F.O=S(=O)([N-]S(=O)(=O)C(F)(F)F)C(F)(F)F.[Eu+3] [Eu(PMS)3, reference compound] | ⊚ | X | X | ⊚ | Δ (disperses up to 5 wt %, but there is turbidity) | Δ (disperses up to 5 wt %, but there is turbidity) | X | 2.08 |  |  | 1.0 | 5.0 | 1.0 | no light emission was noted | 2.5 |
